USRE40912E1, “Process for isolation, purification, and recrystallization of lutein from saponified marigold oleoresin and uses thereof” (The Catholic University of America, priority 1994, dated 2009)

Assays:
[1] = human study of oral lutein dose, plasma carotenoid profile; assay type: in vivo; conditions: oral 10 mg lutein dose as suspension in olive oil (ethanol, α-tocopherol, polysorbate 80), spread on a bagel
Method: Carotenoids are considered among the fat soluble nutrients and are usually associated with the lipoprotein fractions of human blood. […] In the following, the procedure employed for the preparation of a small batch (100 dose, each 10 mg) of purified lutein is described.
Purified lutein from marigold flowers extract (1 g) was added to absolute alcohol (75 mL). To this solution α-tocopherol (50 mg) and food grade polysorbate 80 (an emulsifier, 4 g) was added and the mixture was sonicated for 10 minutes. The addition of α-tocopherol (0.01% by weight) was to stabilize lutein and prevent this compound from possible oxidation during long term storage. The above suspension was then mixed with 350 g of light and mild olive oil (saturated fat/polyunsaturated fat=2/1) and the mixture was sonicated for 5 minutes. […] 7 mL aliquots of this suspension was shown by spectrophotometric analysis to contain 10 mg of lutein. At various intervals, the stability and the purity of lutein suspension in the olive oil was determined by spectrophotometric and HPLC analysis. […] In one study each 7 mL aliquot of the olive oil (containing 10 mg lutein) was spread on a bagel prior to ingestion. Alternatively, this small volume of oil can be readily taken with other foods. […]

[2] = stability of lutein suspension in olive oil by spectrophotometric and HPLC analysis; assay type: physicochemical; conditions: suspension in olive oil with α-tocopherol and polysorbate 80, stored under nitrogen in a refrigerator
Method: Purified lutein from marigold flowers extract (1 g) was added to absolute alcohol (75 mL). To this solution α-tocopherol (50 mg) and food grade polysorbate 80 (an emulsifier, 4 g) was added and the mixture was sonicated for 10 minutes. The addition of α-tocopherol (0.01% by weight) was to stabilize lutein and prevent this compound from possible oxidation during long term storage. The above suspension was then mixed with 350 g of light and mild olive oil (saturated fat/polyunsaturated fat=2/1) and the mixture was sonicated for 5 minutes. […] 7 mL aliquots of this suspension was shown by spectrophotometric analysis to contain 10 mg of lutein. At various intervals, the stability and the purity of lutein suspension in the olive oil was determined by spectrophotometric and HPLC analysis. […] In one study each 7 mL aliquot of the olive oil (containing 10 mg lutein) was spread on a bagel prior to ingestion. Alternatively, this small volume of oil can be readily taken with other foods. Although this preparation of lutein dose is appropriate for conducting human studies with a limited number of subjects, other preparations of this compound into tablets or capsules can be accomplished. The formulation of β-carotene into tablets and capsules which has been developed by Hoffmann-La Roche Inc. (Nutley, N.J.), may also be found suitable for lutein with some minor modifications.

SMILES: CC1=C[C@H](O)CC(C)(C)[C@H]1/C=C/C(C)=C/C=C/C(C)=C/C=C/C=C(C)/C=C/C=C(C)/C=C/C1=C(C)C[C@@H](O)CC1(C)C [lutein, (3R,3′R,6′R)-β,ε-Carotene-3,3′-diol]
- absorption of lutein by the subjects as determined from analysis of their plasma carotenoid profile [1]: excellent absorption
- stability of lutein suspension in olive oil [2]: stable for up to one month
